Reference: patent publication US9896445B2, “Heterocyclic inhibitors of ERK1 and ERK2 and their use in the treatment of cancer” (Asana Biosciences, LLC, priority 2015, dated 2018)

How the values were obtained:
[1] = target: T1, ERK1 (Homo sapiens, UniProt P27361); assay: ERK1 HTRF (biochemical) assay
T1 construct: purchased Jubilant Biosys
Description: ERK1 and ERK2 HTRF (Biochemical) Assays
These assays employed a homogeneous time resolved fluorescence (HTRF) technique. […] The plate was incubated at room temperature for 60 min with shaking. […] The IC50 values (half maximal inhibitory concentration values) were subsequently determined using a sigmoidal dose-response curve (variable slope) in GraphPad Prism® 5 software.

[2] = target: T2, ERK2 (Homo sapiens, UniProt P28482); assay: ERK2 HTRF (biochemical) assay
T2 construct: purchased Jubilant Biosys
T2 sequence (P28482 whole entry): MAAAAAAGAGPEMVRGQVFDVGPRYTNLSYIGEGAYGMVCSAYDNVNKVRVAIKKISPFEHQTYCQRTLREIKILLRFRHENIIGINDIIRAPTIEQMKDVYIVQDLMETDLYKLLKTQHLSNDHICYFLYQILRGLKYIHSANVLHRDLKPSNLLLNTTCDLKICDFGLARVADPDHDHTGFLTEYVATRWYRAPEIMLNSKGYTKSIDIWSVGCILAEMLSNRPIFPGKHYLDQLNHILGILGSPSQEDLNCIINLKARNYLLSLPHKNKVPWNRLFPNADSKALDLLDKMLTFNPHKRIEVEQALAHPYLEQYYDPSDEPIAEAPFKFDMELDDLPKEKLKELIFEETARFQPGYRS
In short: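 Compounds were tested as half-log dilutions from 0.0005 to 10 uM in Tris pH 7.5/MgCl2 buffer, with a substrate mix of 1 uM biotin-MBP peptide and 24 uM ATP and an enzyme mix of 25 nM ERK2. Reaction ran 60 min at room temperature. Phospho-MBP was detected by HTRF (Eu-anti-phospho-MBP/SA-APC, 665/620 nm), and IC50 was fitted with a variable-slope sigmoidal curve.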

T1 sequence (P27361 whole entry): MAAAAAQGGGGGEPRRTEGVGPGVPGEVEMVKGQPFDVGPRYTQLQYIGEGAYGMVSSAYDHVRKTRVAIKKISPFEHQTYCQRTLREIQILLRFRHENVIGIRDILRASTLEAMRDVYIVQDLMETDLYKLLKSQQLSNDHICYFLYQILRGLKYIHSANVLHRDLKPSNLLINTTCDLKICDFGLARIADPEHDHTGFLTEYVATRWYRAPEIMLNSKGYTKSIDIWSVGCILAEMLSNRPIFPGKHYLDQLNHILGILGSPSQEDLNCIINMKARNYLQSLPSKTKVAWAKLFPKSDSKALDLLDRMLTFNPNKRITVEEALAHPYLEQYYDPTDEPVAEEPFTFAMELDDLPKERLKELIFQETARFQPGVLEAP

Row | SMILES | IC50 ([1]; HTRF) [µM] | IC50 ([2]; HTRF) [µM] | IC50 ([1]; HTRF biochemical assay) [µM] | IC50 ([2]; HTRF biochemical assay) [µM]
1 | Cc1cnc(NC2CCOCC2)nc1-n1cnc(C(=O)N[C@@H](CO)c2cccc(Cl)c2)c1 [Compound 217, (R)-N-(1-(3-chlorophenyl)-2-hydroxyethyl)-1-(5-methyl-2-((tetrahydro-2H-pyran-4-yl)amino)-pyrimidin-4-yl)-1H-imidazole-4-carboxamide] | 0.1 to 0.5 | 0.1 to 0.5 |  | 
2 | O=C(Nc1cnn(-c2ccnc(Nc3ccccc3Cl)n2)c1)N[C@@H](CO)c1ccccc1 [Compound 4, (R)-1-(1-(2-((2-chlorophenyl)amino)pyrimidin-4-yl)-1H-pyrazol-4-yl)-3-(2-hydroxy-1-phenylethyl)urea] | > 2.5 | > 2.5 |  | 
3 | Cc1cnc(Nc2ccc3c(c2)CC(=O)N3)nc1-n1ccc(C(=O)NC(CO)c2cccc(Cl)c2)c1 (stereo not shown) [Compound 198, N-(1-(3-chloro-phenyl)-2-hydroxy-ethyl)-1-(5-methyl-2-((2-oxoindolin-5-yl)amino)pyrimidin-4-yl)-1H-pyrrole-3-carboxamide] | < 0.05 | ≤ 0.05 |  | 
4 | Cc1cnc(NC2CCOCC2)nc1-n1cnc(C(=O)NC(CO)c2ccc(Cl)s2)c1 (stereo not shown) [Example 257, N-(1-(5-chlorothiophen-2-yl)-2-hydroxy-ethyl)-1-(5-methyl-2-((tetrahydro-2H-pyran-4-yl)amino)-pyrimidin-4-yl)-1H-imidazole-4-carboxamide] | < 0.05 | ≤ 0.05 |  | 
5 | COc1cc(F)ccc1Nc1ncc(C)c(-n2ccc(C(=O)NC(CO)c3cccc(Cl)c3)c2)n1 (stereo not shown) [Compound 142, N-(1-(3-chloro-phenyl)-2-hydroxy-ethyl)-1-(2-((4-fluoro-2-methoxy-phenyl)amino)-5-methylpyrimidin-4-yl)-1H-pyrrole-3-carboxamide] | < 0.05 | ≤ 0.05 |  | 
6 | Cc1cnc(Nc2ccc(F)cc2)nc1-n1cnc(C(=O)N[C@H](CN)c2cccc(Cl)c2)c1 [Compound 248, (S)-N-(2-amino-1-(3-chlorophenyl)-ethyl)-1-(2-((4-fluorophenyl)amino)-5-methyl-pyrimidin-4-yl)-1H-imidazole-4-carboxamide] | < 0.05 | ≤ 0.05 |  | 
7 | Cc1cnc(NC2CCCOC2)nc1-n1ccc(C(=O)N[C@H](CO)c2cccc(Cl)c2)c1 (stereo partly drawn) [Compound 156, N-((S)-1-(3-chloro-phenyl)-2-hydroxy-ethyl)-1-(5-methyl-2-((tetrahydro-2H-pyran-3-yl)amino)-pyrimidin-4-yl)-1H-pyrrole-3-carboxamide] | < 0.05 | ≤ 0.05 |  | 

Continued, values first:

Row | IC50 ([1]; HTRF) [µM] | IC50 ([2]; HTRF) [µM] | IC50 ([1]; HTRF biochemical assay) [µM] | IC50 ([2]; HTRF biochemical assay) [µM] | SMILES
8 | < 0.05 | ≤ 0.05 |  |  | Cc1cnc(NC2CCOCC2)nc1-n1cnc(C(=O)NC(CN)c2ccc(Cl)s2)c1 (single isomer, unassigned; enantiomer #1) [Example 290, N-(2-amino-1-(5-chlorothiophen-2-yl)ethyl)-1-(5-methyl-2-((tetrahydro-2H-pyran-4-yl)amino)-pyrimidin-4-yl)-1H-imidazole-4-carboxamide (enantiomer #1)]
9 |  |  | 0.1 to 0.5 | ≤ 0.05 | Cc1cnc(N[C@H]2CCOC2)nc1-n1cnc(C(=O)NCc2cccc(C#N)c2)c1 [Example 310, (S)-N-(3-cyano-benzyl)-1-(5-methyl-2-((tetrahydrofuran-3-yl)amino)-pyrimidin-4-yl)-1H-imidazole-4-carboxamide]
10 |  |  | < 0.05 | ≤ 0.05 | Cc1cnc(NC2CCOCC2)nc1-n1cnc(C(=O)N[C@H](CNCCO)c2cccc(Cl)c2)c1 [Example 333, (S)-N-(1-(3-chlorophenyl)-2-((2-hydroxyethyl)amino)ethyl)-1-(5-methyl-2-((tetrahydro-2H-pyran-4-yl)amino)-pyrimidin-4-yl)-1H-imidazole-4-carboxamide]
11 |  |  | < 0.05 | ≤ 0.05 | Cc1cnc(N[C@H]2CCOC2)nc1-n1cnc(C(=O)NCc2cc(Cl)cc(Cl)c2)c1 [Example 313, (S)-N-(3,5-dichloro-benzyl)-1-(5-methyl-2-((tetrahydrofuran-3-yl)amino)-pyrimidin-4-yl)-1H-imidazole-4-carboxamide]
